Test results as given in PMC9695599, “N-Terminally Lipidated Sialorphin Analogs—Synthesis, Molecular Modeling, In Vitro Effect on Enkephalins Degradation by NEP and Treatment of Intestinal Inflammation in Mice” (International Journal of Molecular Sciences, 2022).
Residues, ends and D or L forms follow the SMILES beside them.

What was measured:
[1] = target: neutral endopeptidase (NEP) (Homo sapiens, UniProt P08473); assay: Degradation of Met-enkephalin by NEP alone and in the presence of inhibitors; conditions: for 1000 × k, degradation rate of Met-enkephalin incubated with NEP in the presence of inhibitor / t1/2, half-life of Met-enkephalin incubated with NEP in the presence of inhibitor: Met-enkephalin 0.0413 mM, inhibitor 0.156 mM, NEP 5.687 nM, Tris–HCl 50 mM pH 7.4, 37 °C, 0, 30, 60, 90, 120 min, RP-HPLC, mean ± SEM, triplicates
Experimental: Determination of Met-enkephalin degradation rates was performed, as described previously. Purified enzyme NEP was purchased from Merck (Warsaw, Poland). Solutions of Met-enkephalin, NEP, and inhibitors were prepared by dissolving them in a Tris–HCl buffer (50 mM, pH 7.4). In investigated samples, the concentrations of Met-enkephalin, inhibitors, and NEP were, respectively, 0.0413 mM, 0.156 mM, and 5.687 nM. The samples consisting of NEP, Met-enkephalin, and the inhibitor were incubated over 0, 30, 60, 90, and 120 min at 37 °C in a final volume of 300 μL. The reaction was stopped with a 1 M aqueous HCl solution. In the next steps, the samples were centrifuged and the supernatants were filtered and analyzed by RP-HPLC. All measurements were performed in triplicates.

[2] = Stability of peptides in human plasma; format: in vitro ADME; conditions: 37 °C, 200 µL peptide solution (1 mg/mL in PBS pH 7.42) + 50 µL human plasma, ethanol deproteinization, RP-HPLC peak area vs 0 h, at least triplicate; for Stability in human plasma relative to heterodimer of sialorphin and spinorphin, after 4 h: 4 h incubation; for Level of remaining peptide in human plasma relative to heterodimer of sialorphin and spinorphin, after 24 h: 24 h incubation
Experimental: Compounds VII and VIII were the strongest inhibitors of NEP in vitro and were thus included in stability assays. Peptides were incubated in the human plasma at 37 °C, and their degradation was analyzed by RP HPLC. The stability of peptides VII–VIII was compared to that of a heterodimer of sialorphin and spinorphin and not sialorphin alone. In previously described stability assays of sialorphin alone, the 48% TFA solution was used to precipitate proteins before HPLC analysis. In the case of the peptides VII and VIII, we had to use ethanol instead of the TFA solution. This change was required by the fact that in the latter solution, an emergence of a degradation product that was characterized by identical retention time on HPLC as that of peptides VII and VIII occurred. Consequently, a different reference was used (heterodimer of sialorphin and spinorphin instead of sialorphin).
Plasma-stability assays were performed by applying procedure described by Sobocińska et al.. Each peptide solution was prepared by dissolving 1 mg of a peptide in 1 mL of PBS buffer (pH 7.42). The samples containing the peptide (200 µL) and freshly […] plasma (50 µL) were incubated at 37 °C. The samples were analyzed after 0, 2, 4, and 24 h. At each time interval 40 μL of the mixture was taken and deproteinized by addition of a ethanol (120 µL). The aliquots were centrifuged at 14,500 rpm for 5 min. The supernatants were filtered over Millipore Millex-GV syringe filters (Merck Life Science, Poznan, Poland) and analyzed with RP-HPLC on a Phenomenex Gemini-NX C18 5 µm column (4.6 mm × 150 mm) using the solvent system of 0.1% TFA in water (A) and 0.1% TFA in acetonitrile (B) and linear gradients of 20–80% (B) over 20 min, at a flow rate of 1.5 mL/min. To assess the stability at each time interval, the area of the peptide peak from the chromatogram was calculated and expressed as the percentage of the area of the peak recorded just after mixing a peptide with plasma (0-hour). The assay was performed at least in triplicate for each peptide.

[3] = test system: DSS-induced colitis in mice; assay: DSS-induced mouse model of colitis; format: in vivo, mouse (male BALB/C); conditions: for Effect on microscopic damage score / colon architecture (in words): DSS-induced colitis, peptide 1 mg/kg i.p. twice daily day 3-6, hematoxylin-eosin stained distal colon sections, day 7
Experimental: Male BALB/C mice obtained from University of Lodz, Poland, weighing 22–25 g (6–8 weeks of age), were used. The mice were kept at a constant temperature (22–23 °C) and maintained under a 12 h light/dark cycle with constant access to laboratory chow and tap water. All animal protocols were approved by the Medical University of Lodz Animal Care Committee (Protocol 2/ŁB 123/2019 and 17/ŁB 132/2019) and complied with Directive 2010/63/EU of the European Parliament and of the Council of 22 September 2010. All efforts were made to minimize animal suffering and to reduce the number of animals used.
Colonic inflammation was induced as described before. From day 0 to day 5, mice received DSS: 4% w/v and molecular weight 40,000 (PanReac AppliChem, Darmstadt, Germany) in drinking water. On days 6 and 7, the DSS solution was replaced with tap water. Control animals were given drinking water throughout the whole experiment. Animal body weight was monitored daily. Mice were sacrificed by cervical dislocation on day 7, and colonic damage was evaluated.
Treatment was administered intraperitoneally (i.p.) twice daily from day 3 to day 6 after colitis induction, 100 µL/mouse. Peptides were administered at the dose of 1 mg/kg bw. Control and DSS groups received vehicle alone (100 µL/mouse, i.p.).
On day 7 of the experiment, mice were euthanized. For total macroscopic damage score evaluation, the colon was removed immediately after cervical dislocation and weighed with fecal content. Next, the colon was opened longitudinally, and the feces were removed.
Total macroscopic damage score was calculated based on the stool consistency (0—normal, well-shaped fecal pellets; 3—diarrhea), colon epithelial damage (0–3), and colon length and weight scores, calculated as a loss of each parameter relative to the control group (0 points, ≤5% weight/length loss; 1 point, 5–14% weight/length loss; 2 points, 15–24% weight/length loss; 3 points, 25–35% weight/length loss; and 4 points, ≥35% weight/length loss). […] The presence (score = 1) or absence (score = 0) of fecal blood was also recorded. […]

Chain of neutral endopeptidase (NEP) (P08473 whole entry, species assumed): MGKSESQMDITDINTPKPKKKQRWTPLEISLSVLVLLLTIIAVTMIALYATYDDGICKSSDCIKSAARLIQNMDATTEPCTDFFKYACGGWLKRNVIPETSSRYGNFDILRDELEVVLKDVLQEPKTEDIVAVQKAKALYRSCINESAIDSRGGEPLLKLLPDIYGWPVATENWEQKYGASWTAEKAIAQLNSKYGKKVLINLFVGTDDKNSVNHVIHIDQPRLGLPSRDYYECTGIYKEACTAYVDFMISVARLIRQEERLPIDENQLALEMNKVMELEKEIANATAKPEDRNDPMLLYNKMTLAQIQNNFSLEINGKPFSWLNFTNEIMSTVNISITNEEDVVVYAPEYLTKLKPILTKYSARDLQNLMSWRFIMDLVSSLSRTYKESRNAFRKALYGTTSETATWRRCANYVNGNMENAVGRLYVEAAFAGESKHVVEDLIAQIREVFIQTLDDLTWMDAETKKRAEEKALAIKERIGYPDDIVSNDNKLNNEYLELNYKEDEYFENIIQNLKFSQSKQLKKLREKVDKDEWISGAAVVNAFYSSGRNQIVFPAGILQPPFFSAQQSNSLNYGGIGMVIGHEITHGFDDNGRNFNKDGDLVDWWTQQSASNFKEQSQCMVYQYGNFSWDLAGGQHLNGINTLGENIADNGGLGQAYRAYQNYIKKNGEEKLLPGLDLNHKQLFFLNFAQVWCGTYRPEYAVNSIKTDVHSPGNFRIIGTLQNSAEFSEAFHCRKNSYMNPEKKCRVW

Row | Compound | 1000 × k, degradation rate of Met-enkephalin incubated with NEP in the presence of inhibitor [1] | t1/2, half-life of Met-enkephalin incubated with NEP in the presence of inhibitor [1] | Stability in human plasma relative to heterodimer of sialorphin and spinorphin, after 4 h [2] | Level of remaining peptide in human plasma relative to heterodimer of sialorphin and spinorphin, after 24 h [2] | Total macroscopic damage score ([3]; DSS 4% w/v in drinking water day 0-5, peptide 1 mg/kg i.p. twice daily day 3-6, evaluated day 7, mean ± SEM, n = 5–10, DSS-only 11.20 ± 0.60, control 0.55 ± 0.18) | Effect on microscopic damage score / colon architecture (in words) [3] | half-life at 0.0413 mM ([1]; isolated enzyme neprilysin, pH 7.4)
1 | CCCCCCCCCCCCCCCC(=O)N[C@@H](CCCCN)C(=O)N[C@@H](CCCCN)C(=O)N[C@@H](CCC(N)=O)C(=O)N[C@@H](Cc1c[nH]cn1)C(=O)N[C@@H](CC(N)=O)C(=O)N1CCC[C@H]1C(=O)N[C@@H](CCCNC(=N)N)C(=O)O [VII] (HELM PEPTIDE1{[CCCCCCCCCCCCCCCC(=O)[*:2]].K.K.Q.H.N.P.R}$$$$V2.0) | 3.46 ± 0.40 *** 1/min | 199 ± 2 min | 1.4 times | 1.3 times | 10.20 ± 0.99 | significantly improved colon architecture | 
2 | CSCC[C@H](NC(=O)[C@H](Cc1ccccc1)NC(=O)CNC(=O)CNC(=O)[C@@H](N)Cc1ccc(O)cc1)C(=O)O [Met-Enkephalin, Met-enkephalin, reference compound] |  |  |  |  |  |  | 27 ± 1 min
3 | CCCCCCCCCCCC(=O)N[C@@H](CCCCN)C(=O)N[C@@H](CCCCN)C(=O)N[C@@H](CCC(N)=O)C(=O)N[C@@H](Cc1c[nH]cn1)C(=O)N[C@@H](CC(N)=O)C(=O)N1CCC[C@H]1C(=O)N[C@@H](CCCNC(=N)N)C(=O)O [V] (HELM PEPTIDE1{[CCCCCCCCCCCC(=O)[*:2]].K.K.Q.H.N.P.R}$$$$V2.0) | 23.20 ± 0.89 min⁻¹ | 30 ± 1 min |  |  |  |  | 
4 | CCCCCCCCCCCCCC(=O)N[C@@H](CCCCN)C(=O)N[C@@H](CCCCN)C(=O)N[C@@H](CCC(N)=O)C(=O)N[C@@H](Cc1c[nH]cn1)C(=O)N[C@@H](CC(N)=O)C(=O)N1CCC[C@H]1C(=O)N[C@@H](CCCNC(=N)N)C(=O)O [VI] (HELM PEPTIDE1{[CCCCCCCCCCCCCC(=O)[*:2]].K.K.Q.H.N.P.R}$$$$V2.0) | 20.06 ± 1.34 ** 1/min | 35 ± 2 min |  |  |  |  | 
5 | CCCCCCCCCCCCCCCCCC(=O)N[C@@H](CCCCN)C(=O)N[C@@H](CCCCN)C(=O)N[C@@H](CCC(N)=O)C(=O)N[C@@H](Cc1c[nH]cn1)C(=O)N[C@@H](CC(N)=O)C(=O)N1CCC[C@H]1C(=O)N[C@@H](CCCNC(=N)N)C(=O)O [VIII] (HELM PEPTIDE1{[CCCCCCCCCCCCCCCCCC(=O)[*:2]].K.K.Q.H.N.P.R}$$$$V2.0) | 0.89 ± 0.10 *** 1/min | 724 ± 43 min | 1.4 times | 5.5 times |  | less pronounced | 
